Test results published in patent publication US20060281806A1, “Treatment and inhibition of disease conditions using flexible heteroarotinoids” (priority 2005, published 2006).
“Also recorded” adds a separate entry of the source.

Assays:
OVCAR-3 xenograft tumors = assay: OVCAR-3 xenograft tumor animal model, tumor growth; assay type: in vivo, mouse; conditions: 10 mg/kg/day by gavage, 5 days/week, 4 weeks; t-test on day 29
Protocol: Groups of 5 mice bearing OVCAR-3 xenografted tumors were gavaged daily with the indicated drugs in sesame oil (▪ closed square) or with sesame oil alone (∘ open circle). Tumor volumes were measured in 3 dimensions with calipers weekly. Each data point represents the average and standard error of the tumor volumes on the indicated treatment day relative to the tumor volume on day zero. Nu/nu mice were injected subcutaneously with one million OVCAR-3 cells and arbitrarily divided into five groups of six mice each. After three weeks of tumor growth, the animals were gavaged with sesame oil, 10 mg/kg/day 4-HPR, or the indicated Het five times per week for four weeks and the tumors were measured once per week. The tumor sizes were averaged and divided by the average size for each group on the day that treatment was initiated (day 0).
The OVCAR-3 cultures were maintained in RPMI media supplemented with 10% fetal bovine serum. All animal experimentation described in this manuscript was conducted in accord with accepted standards of humane animal care. Twenty-five female NU/NU CD-1 female mice (Charles Rivers Laboratories) were housed in a laminar flow room under sterile conditions at 83-85° F. The mice were quarantined for one week prior to the beginning of the study and were allowed access to autoclaved food (Purina 5001 mouse/rat sterilizable diet, St. Louis, Mo.) and water ad libitum. OVCAR-3 cells in log phase growth were harvested by trypsinization, resuspended in RPMI culture medium, and centrifuged at 3,000 rpm for 10 min. The pellets were resuspended in RPMI culture medium at a concentration of 7×10^6 cells/ml before implantation into mice. Animals were injected with 3.5×10^6 cells into the right scapular region with a 24-gauge needle/1 cc tuberculin syringe. Twenty-four hours after tumor implantation, animals were randomized into 5 groups of 5 animals each.
The Hets SHet50, SHetA2 and SHetA4 were synthesized and their receptor specificity determined as previously described (17,19). The 4-HPR compound was a gift from R.W. Johnson Pharmaceutical Research Institute, Raritan, N.J. All retinoids were dissolved in super refined sesame oil (Croda, Inc., Parsippany, N.J.) and stored at −80° C. Since the retinoids are light sensitive, all manipulations involving retinoids were performed under subdued lighting. […] Tumors were measured with calipers weekly, and tumor volumes were calculated using the formula: volume=length×width×height. Tumor growth was determined by the dividing the volume of the tumor at each weekly measurement by the volume on the first day of treatment. Animal weights and clinical signs of overall health status and cutaneous toxicities were recorded weekly.

ovarian cancer cells = assay: Microarray analysis of gene expression in SHetA2-treated ovarian cancer cells; assay type: cell-based, human
Protocol: Microarray analysis was conducted to determine specific disease causing genes which were expressed at higher (>1 fold) or lower (<1 fold) levels than normal in ovarian cancer cells treated with SHetA2 (see Table 6).

[1] = test system: Thymidine Phosphorylase (TP); assay: Real time rt-PCR and Western blot validation, TP; assay type: cell-based; conditions: 1 μM (rt-PCR, OVCAR-3) and 10 μM (Western blot, A2780)
Protocol: FIG. 13. Real Time rt-PCR validation of SHetA2 inhibition of TP and TSP-1 mRNA Expression. OVCAR-3 cultures were treated with 1 μM SHetA2 for the indicated period of time prior to harvesting the cells and isolating RNA. cDNA was prepared and used in real time rt-PCR reactions. Real time rt-PCR was performed on CDNA from cultures various treatment times.
FIG. 14. Western blot validation of SHetA2 inhibition of TP and TSP4 protein expression. A2780 ovarian cancer cells were treated with 10 μM SHetA2 for the indicated amounts of time. Equal amounts of whole cell protein extracts were evaluated by Western blot.

`CC1(C)CC(C)(C)c2cc(NC(=S)Nc3ccc([N+](=O)[O-])cc3)ccc2S1` [SHetA2] was tested, and the “growth of xenograft tumors versus sesame oil control” value (OVCAR-3 xenograft tumors) was “significantly inhibited the growth; also recorded: significantly less”, the Fold (ovarian cancer cells; gene: 3-hydroxyisobutyrate dehydrogenase, mitochondrial precursor, AK025558) was 0.00 Fold and the Fold (ovarian cancer cells; gene: A kinase (PRKA) anchor protein 1, clone MGC:1807, BC000729.1) was 2.00 Fold. For the same compound, the Fold (ovarian cancer cells; gene: A kinase anchor protein S-AKAP84 mRNA, U34074.1) was 2.14 Fold, the Fold (ovarian cancer cells; gene: ADAMTS1, AK023795.1) was 0.43 Fold and the Fold (ovarian cancer cells; gene: ADAMTS5, NM_007038.1) was 0.23 Fold. The Fold (ovarian cancer cells; gene: ASPLTFE3 type 2 fusion protein, ASPLTFE3 type 1 fusion protein mRNA, AY034077.1) was 0.46 Fold, the Fold (ovarian cancer cells; gene: ATP-binding cassette, sub-family B (MDRTAP), member 6 (ABCB6), NM_005689.1) was 0.46 Fold and the Fold (ovarian cancer cells; gene: ATP-binding cassette, sub-family D (ALD), member 2 (ABCD2), NM_005164.1) was 2.71 Fold. The Fold (ovarian cancer cells; gene: Amyotrophic lateral sclerosis 2 (juvenile) chromosome region, candidate 3 (ALS2CR3), NM_015049.1) was 0.41 Fold, the Fold (ovarian cancer cells; gene: Angiopoietin-like 2 (ANGPTL2), NM_012098.1) was 2.16 Fold and the Fold (ovarian cancer cells; gene: B-cell CLLlymphoma 3 (BCL3), AI829875) was 2.58 Fold. The Fold (ovarian cancer cells; gene: B-cell CLLlymphoma 3 (BCL3), NM_005178.1) was 2.05 Fold, the Fold (ovarian cancer cells; gene: BAGE2 antigen (BAGE2), AF218570.1) was 0.34 Fold and the Fold (ovarian cancer cells; gene: BAM in multiple myeloma, AF455755.1) was 3.05 Fold. The Fold (ovarian cancer cells; gene: Butyrophilin (BTF3), Cluster Incl. U90548) was 2.15 Fold, the Fold (ovarian cancer cells; gene: Butyrophilin, subfamily 3, member A2 (BTN3A2), AI991252) was 2.31 Fold and the Fold (ovarian cancer cells; gene: Butyrophilin, subfamily 3, member A3 (BTN3A3), NM_006994.2) was 2.04 Fold. It also gave a Fold (ovarian cancer cells; gene: Cervical cancer suppressor gene-4 protein (HCCS-4), AF465843.1) of 2.06 Fold, a Fold (ovarian cancer cells; gene: Chromosome 5 open reading frame 4 (C5ORF4), NM_016348.1) of 2.76 Fold and a Fold (ovarian cancer cells; gene: Deleted in lymphocytic leukemia, 2/DEF = Homo sapiens BCMS-upstream neighbor (BCMSUN), AF264787.1) of 0.33 Fold. It also gave a Fold (ovarian cancer cells; gene: Deleted in lymphocytic leukemia, BCMS-upstream neighbor (BCMSUN) (DLEU2), AF264787.1) of 0.40 Fold, a Fold (ovarian cancer cells; gene: Dysferlin, limb girdle muscular dystrophy 2B (DYSF), NM_003494.1) of 2.16 Fold and a Fold (ovarian cancer cells; gene: Dystrophin, dystrophin Dp40 isoform (DMD), NM_004019.1) of 2.76 Fold. For the same compound, the Fold (ovarian cancer cells; gene: EHT protein, AF068266.1) was 2.80 Fold, the Fold (ovarian cancer cells; gene: ESTs, Moderately similar to S72399 ras-homolog GTPase rab28 isoform S, AI080106) was 7.75 Fold and the Fold (ovarian cancer cells; gene: ESTs, Weakly similar to DRPL_Human Atrophin-1 (DRPL) in Huntington's disease (HD) and DRPLA, AI358954) was 2.52 Fold. It also gave a Fold (ovarian cancer cells; gene: ESTs, Weakly similar to DRPL_Human Atrophin-1 (DRPL) in dentatorubral-pallidoluysian atrophy, AI358954) of 2.52 Fold, a Fold (ovarian cancer cells; gene: Endothelial cell growth factor 1 (platelet-derived)/Thymidine phosphorylase, NM_001953) of 0.42 Fold and a Fold (ovarian cancer cells; gene: Enhancer of zeste (Drosophila) homolog 2 (EZH2) (USP14), NM_004456.1) of 0.47 Fold. For the same compound, the Fold (ovarian cancer cells; gene: FLJ23538 fis, highly similar to BETA2 Human MEN1 region clone epsilonbeta (BETA2), AI042152) was 0.31 Fold, the Fold (ovarian cancer cells; gene: FYN oncogene related to SRC, FGR and YES (FYN), N20923) was 0.13 Fold and the Fold (ovarian cancer cells; gene: FYN oncogene related to SRC, FGR and YES, c-syn protooncogene, M14333.1) was 0.44 Fold. For the same compound, the Fold (ovarian cancer cells; gene: Facioscapulohumeral muscular dystrophy (FSHD) gene region, D4Z4 tandem repeat unit, D38024) was 2.43 Fold, the Fold (ovarian cancer cells; gene: Familial Mediterranean fever locus region, AF098968.1) was 0.30 Fold and the Fold (ovarian cancer cells; gene: Fibroblast growth factor 2 (basic)(FGF2), NM_002006.1) was 0.35 Fold. For the same compound, the Fold (ovarian cancer cells; gene: Fibroblast growth factor 18 (FGF18), NM_003862.1) was 2.75 Fold, the Fold (ovarian cancer cells; gene: Galactosamine (N-acetyl)-6-sulfate sulfatase, NM_000512) was 0.52 Fold and the Fold (ovarian cancer cells; gene: Glypican-6 (GPC6), AF111178.1) was 2.07 Fold. It also gave a Fold (ovarian cancer cells; gene: Hemochromatosis splice variant 495-2314del, AF144243.1) of 3.01 Fold, a Fold (ovarian cancer cells; gene: IMAGE:3050107 mRNA, TBC1 domain family, BC001525) of 0.67 Fold and a Fold (ovarian cancer cells; gene: Keratocan (KERA), NM_007035.2) of 0.50 Fold. For the same compound, the Fold (ovarian cancer cells; gene: Lipoma cell line Li-538SV40 ectopic sequence from HMGI-C fusion mRNA (LI), AI990940) was 0.47 Fold, the Fold (ovarian cancer cells; gene: METH1 protein (METH1), AF060152.1) was 0.39 Fold and the Fold (ovarian cancer cells; gene: Myeloidlymphoid leukemia 2 (MLL2), AF105279.1) was 0.31 Fold. The Fold (ovarian cancer cells; gene: Myeloidlymphoid or mixed-lineage leukemia, translocated to, 4 (HGC6.3), AB016902.2) was 5.07 Fold, the Fold (ovarian cancer cells; gene: N-cym protein, NM_006316) was 2.38 Fold and the Fold (ovarian cancer cells; gene: NICE-5 protein, AW779859) was 0.48 Fold. The Fold (ovarian cancer cells; gene: Nasopharyngeal carcinoma susceptibility protein (LZ16), NM_013275.1) was 0.41 Fold, the Fold (ovarian cancer cells; gene: Nephropontin, M83248.1) was 2.34 Fold and the Fold (ovarian cancer cells; gene: Neuroblastoma, suppression of tumorigenicity 1 (NBL1), NM_005380.1) was 3.07 Fold. The Fold (ovarian cancer cells; gene: Niban protein (NIBAN), NM_022083.1) was 0.21 Fold, the Fold (ovarian cancer cells; gene: Novel MAFF LIKE protein, Cluster Incl. AL021977) was 0.47 Fold and the Fold (ovarian cancer cells; gene: PNAS-128 in leukemia, AF277186.1) was 0.36 Fold. It also gave a Fold (ovarian cancer cells; gene: Peroxisomal biogenesis factor 3 (PEX3), NM_003630.1) of 0.43 Fold, a Fold (ovarian cancer cells; gene: Peroxisomal biogenesis factor 14 (PEX14), NM_004565.1) of 2.06 Fold and a Fold (ovarian cancer cells; gene: Promyelocytic leukemia (PML), NM_002675.1) of 2.76 Fold. It also gave a Fold (ovarian cancer cells; gene: Prostate cancer associated protein 5 (PCANAP5), AI299378) of 0.23 Fold, a Fold (ovarian cancer cells; gene: Prothymosin alpha (PTMA), AF257099) of 2.60 Fold and a Fold (ovarian cancer cells; gene: Putative c-Myc-responsive (RCL), AA523444) of 0.41 Fold. For the same compound, the Fold (ovarian cancer cells; gene: RASSF3 isoform A, putative tumor suppressor, AY062002.1) was 2.88 Fold, the Fold (ovarian cancer cells; gene: RNA binding motif protein 5, putative tumor suppressor (LUCA15), U23946.1) was 0.43 Fold and the Fold (ovarian cancer cells; gene: Regulatory factor X-associated protein (RFXAP), NM_000538.1) was 0.41 Fold. It also gave a Fold (ovarian cancer cells; gene: Retinitis pigmentosa GTPase regulator (RPGR), NM_000328.1) of 0.47 Fold, a Fold (ovarian cancer cells; gene: Rhabdoid tumor deletion region protein 1 (RTDR1), NM_014433.1) of 2.20 Fold and a Fold (ovarian cancer cells; gene: SNRPN upstream reading frame (SNURF), BF114870) of 0.39 Fold. For the same compound, the Fold (ovarian cancer cells; gene: Sarcoglycan, gamma (35 kD dystrophin-associated glycoprotein), NM_000231.1) was 0.04 Fold, the Fold (ovarian cancer cells; gene: Similar to vitelliform macular dystrophy (Best disease, bestrophin), BC041664.1) was 0.26 Fold and the Fold (ovarian cancer cells; gene: Smcx homolog, X chromosome (mouse), NM_004187) was 0.61 Fold. The Fold (ovarian cancer cells; gene: Sulfite oxidase (SUOX), NM_000456.1) was 2.11 Fold, the Fold (ovarian cancer cells; gene: Thrombospondin 1 (THBS1), BE999967) was 0.42 Fold and the Fold (ovarian cancer cells; gene: Thrombospondin 4, NM_003248) was 0.58 Fold. It also gave a Fold (ovarian cancer cells; gene: Thromospondin 4 (THBS4), NM_03248.1) of 2.58 Fold, a Fold (ovarian cancer cells; gene: Transglutaminase 4 (prostate), NM_003241) of 0.24 Fold and a Fold (ovarian cancer cells; gene: Translocase of inner mitochondrial membrane 44 (yeast) homolog (TIM44), NM_006351.1) of 0.50 Fold. For the same compound, the Fold (ovarian cancer cells; gene: Trichorhinophalangeal syndrome I gene (TRPS1), NM_014112.1) was 0.36 Fold, the Fold (ovarian cancer cells; gene: UDP-galactose-4-epimerase, NM_000403) was 0.66 Fold and the Fold (ovarian cancer cells; gene: Unknown protein mRNA within the p53 intron 1, U58658.1) was 0.45 Fold. The Fold (ovarian cancer cells; gene: Vascular endothelial growth factor (VEGF), AF022375.1) was 0.47 Fold, the Fold (ovarian cancer cells; gene: Vitelliform macular dystrophy (Best disease, bestrophin) (VMD2), NM_004183.1) was 0.28 Fold and the Fold (ovarian cancer cells; gene: aarF domain containing kinase 4, BC013114) was 2.30 Fold. The Fold (ovarian cancer cells; gene: v-Myc avian myelocytomatosis viral related oncogene, neuroblastoma derived (MYCN), BC002712.1) was 3.99 Fold and the “expression of TP at the RNA and protein levels” value [1] was “inhibit expression”.
